From patent US20240201173A1, “Enamel Repair Visualization and Quantification” (Colgate-Palmolive Company, priority 2022, published 2024)

Tests used:
[1] = Single-block enamel repair evaluation, solution samples (Keyence microscope step height, light microscopy, SEM); set-up: species or system bovine
Procedure: The left half of the block (“sound”) is covered using an acid-resistant nail polish, which is then allowed to air dry. The right half of the block (“damaged” and “repaired”) is then treated with 1% citric acid (pH 3.6) for ten minutes to etch the surface. After the treatment, the surface of the block is rinsed with deionized water. The top right corner of the block (“damaged”) is then covered with the same acid-resistant nail polish and air dried. The test formulation is then applied to the bottom right corner of the block (“repaired”), for example, for a ten-minute treatment, followed by rinsing with deionized water. Following the treatment, the enamel blocks are immersed in a Remineralization Solution (0.2205 g/L CaCl2·2H2O, 0.1225 g/L KH2PO4, 9.6915 g/L KCl and 4.766 g/L HEPEs buffer, pH adjusted to 7 with NaOH) overnight at 37° C., and the process repeated for 2-4 days (the blocks immersed daily in fresh remineralization solution). Following this, the blocks are removed, rinsed with deionized water and air dried. The nail polish covers are then removed using acetone solvent, and the surface of the enamel blocks is visualized, for example, by light microscopy, confocal laser scanning microscopy, scanning probe microscopy, or scanning electron microscopy.
A Keyence microscope is used to capture the surface morphology and to measure the step height of the treated samples. A Phenom ProX Desktop scanning electron microscope is used to observe the repaired enamel crystals. Bovine enable blocks are treated with either water, the sodium fluoride solution, or the 10 mg/mL ePL+0.06 mg/mL malic acid solution (Solution A above).

[2] = Knoop microhardness repair of acid-etched bovine enamel blocks after treatment and remineralization; conditions: 1% citric acid etch 10 min, 40 microliters for ten minutes at room temperature, Remineralization Solution overnight at 37° C.
Procedure: Bovine enamel blocks are obtained from sound bovine incisors without defects. The labial surface of the bovine teeth is cut to provide enamel specimens of about 3×3×2 mm in size. The enamel layer is about 1 mm thick and the dentin left in the specimen is about 1 mm thick.
Etched enamel samples are prepared by treatment with 1% aqueous citric acid (pH 3.6) for 10 minutes, followed by rinsing with deionized water. Three bovine enamel blocks are prepared, one for the test solution, one for a positive control solution, and one for a negative control solution.
Etched bovine enamel samples are treated with 40 microliters of the polyelectrolyte solution A, with sodium fluoride solution, or with water, for ten minutes at room temperature. […]
Knoop Hardness (KHN) is a measure of hardness of a material calculated by measuring the indentation produced by a diamond tip that is pressed onto the surface of a sample. Using a calibrated microscope, the area of the impression can be determined, and from the area of the indentation (D) in […], and the applied load (F) in kilograms force, the Knoop Hardness is calculated as: KHN=14.229(F/D^2). […]
KHN is determined using Knoop microhardness tester. […] A value for Percentage of Hardness Repair (% HR) is calculated according to the following formula: […]

In the case of `[F-].[Na+]` [NaF Control, sodium fluoride], the “% Repair (Step height)” value ([1]; 1% citric acid etch 10 min, ten-minute treatment, remineralization repeated 2-4 days) is reported as 65.3%, the “enamel surface gaps, scanning electron microscopy” value ([1]; gaps from acid etching) is reported as “some healing” and the “surface elevation, 3-D Keyence photomicrographs (FIG. 3)” value ([1]; height vs sound enamel side) is reported as “do not restore the enamel to the original height”. For the same compound, the “surface morphology of repaired side, light microscopy (FIG. 2)” value ([1]; repaired vs damaged side of same block) was “a clear interface between “damaged” and “repaired” sides is observed”, the “% HR (Percentage of Hardness Repair)” value [2] was 41.0% and the “% HR (Percentage of Hardness Repair)” value ([2]; listed as sodium fluoride) was “did not reach half of original hardness levels”.
